Laboratory results reported in patent publication US11629171B2, “Beta-hairpin peptidomimetics” (POLYPHOR AG, priority 2017, dated 2023).
Values after ≈ are worked out from the molar mass of the structure shown. Where a SMILES comes first, the peptide text is derived from it. Bridges are numbered along the chain shown (N, C = ends). Roman numbers before positions name the chains, in order. [ ]: non-standard residue; d: D form. The star is where a group is joined. Leu(3R-OH) = CC(C)[C@@H](O)[C@H](N)C(=O)O; Tyrosinol = OC[C@H](Cc1ccc(O)cc1)N*; Tle = CC(C)(C)[C@H](N)C(=O)O; dOrn = NCCC[C@@H](N)C(=O)O; Hiv = CC(C)[C@H](O)C(=O)O; dDab = NCC[C@@H](N)C(=O)O; hSer = N[C@@H](CCO)C(=O)O; Nle = CCCC[C@H](N)C(=O)O; Orn = NCCC[C@H](N)C(=O)O; Dab = NCC[C@H](N)C(=O)O; Dap = NC[C@H](N)C(=O)O

How the values were obtained:
Assay type in all cases: cell-based
[1] = tested on: Acinetobacter baumannii 872842; settings: 872842
How it was run: (§1)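 Visible-growth endpoint after 18-20 h at 35° C defines the MIC (μg/mL). Setup: CLSI broth microdilution, MH-II cation-adjusted broth with P-80 at 0.002% final, inoculum of approximately 10^6 CFU/mL, two-fold serial peptide dilutions.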

[2] = tested on: Acinetobacter baumannii DSM 30008; settings: DSM 30008
How it was run: as §1

[3] = tested on: Enterobacter cloacae 848840; settings: 848840
How it was run: as §1

Escherichia coli 926415 = settings: 926415
How it was run: as §1

[4] = tested on: Escherichia coli ATCC 25922; settings: ATCC 25922
How it was run: as §1

[5] = tested on: Klebsiella pneumoniae 968733; settings: 968733
How it was run: as §1

[6] = tested on: Klebsiella pneumoniae SSI #3010; settings: SSI #3010
How it was run: as §1

[7] = tested on: Pseudomonas aeruginosa ATCC 27853; settings: ATCC 27853
How it was run: as §1

[8] = tested on: human red blood cells (hRBC); assay: Hemolysis; settings: red cells of human, 1 h, 200
How it was run: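 Hemoglobin release from PBS-washed hRBC at 20% (v/v), incubated 1 h at 37° C with peptides at 200 μg/mL, is measured at 540 nm. Values are blank corrected and given as a fraction of Triton X-100 lysis × 100%.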

SMILES	MIC [1] [µg/mL]	MIC [2] [µg/mL]	MIC [3] [µg/mL]	MIC (Escherichia coli 926415) [µg/mL]	MIC [4] [µg/mL]	MIC [5] [µg/mL]	MIC [6] [µg/mL]	MIC [7] [µg/mL]	Acinetobacter baumannii DSM 30008 MIC [2] [µg/mL]	Escherichia coli ATCC 25922 MIC [4] [µg/mL]	Klebsiella pneumoniae SSI #3010 MIC [6] [µg/mL]	Pseudomonas aeruginosa ATCC 27853 MIC [7] [µg/mL]	Hemolysis at 200 μg/mL [8] [%]
CCCC[C@H](NC(C)=O)C(=O)N[C@H](C(=O)N[C@@H](Cc1ccc(O)cc1)C(=O)N[C@H]1CSSC[C@@H](C(=O)N[C@H](C(=O)N[C@H](C(=O)N[C@H](C(N)=O)[C@@H](C)O)[C@@H](C)O)[C@@H](C)CC)NC(=O)[C@H](Cc2c[nH]c3ccccc23)NC(=O)[C@H](CO)NC(=O)[C@@H](CCN)NC(=O)[C@H](CCC(=O)N[C@@H](CCN)C(=O)N[C@H](C(=O)N[C@@H](CN)C(=O)N[C@H]2CCNC(=O)[C@H]([C@@H](C)O)NC(=O)[C@H](CCN)NC(=O)[C@H](CCN)NC(=O)[C@H]([C@H](O)C(C)C)NC(=O)[C@@H](CC(C)C)NC(=O)[C@H](CCN)NC2=O)[C@@H](C)O)NC1=O)[C@@H](C)O [Ex. 223] (I: Ac-[Nle]TYCE[dDab]SWCITT-NH2 / II: [Dab]T[Dap][Dab][Dab][dL][Leu(3R-OH)][Dab][Dab]T; disulfide I:4-I:9; amide I:5-II:N; lactam II:4-II:C)	0.03125 (≈ 0.0126 µM)	0.03125 (≈ 0.0126 µM)	0.0625 (≈ 0.0253 µM)	0.125 (≈ 0.0506 µM)	0.03125 (≈ 0.0126 µM)	0.25 (≈ 0.101 µM)	0.0625 (≈ 0.0253 µM)	0.125 (≈ 0.0506 µM)	–	–	–	–	<1
CC(C)C[C@@H]1NC(=O)[C@@H](CC(C)C)NC(=O)[C@H](CCN)NC(=O)[C@@H](NC(=O)[C@H](CCN)NC(=O)[C@@H](NC(=O)[C@H](CCN)NC(=O)CC[C@@H]2NC(=O)[C@H](CCN)NC(=O)[C@H]([C@@H](C)O)NC(=O)[C@@H](NC(=O)[C@@H](O)C(C)C)CSSC[C@@H](C(=O)N[C@H](CO)Cc3ccc(O)cc3)NC(=O)[C@H](C(C)(C)C)NC(=O)[C@H](CO)NC(=O)[C@H](Cc3c[nH]c4ccccc34)NC(=O)[C@H](CCO)NC(=O)[C@@H](CCN)NC2=O)[C@@H](C)O)CCNC(=O)[C@H]([C@@H](C)O)NC(=O)[C@H](CCN)NC(=O)[C@H](CCN)NC1=O [Ex. 93] (I: H-[Hiv]CT[Dab]E[dDab][hSer]WS[Tle]C-Tyrosinol / II: [Dab]T[Dab][Dab][Dab][dL]L[Dab][Dab]T; disulfide I:2-I:11; amide I:5-II:N; lactam II:4-II:C)	0.5 (≈ 0.208 µM)	0.25 (≈ 0.104 µM)	0.25 (≈ 0.104 µM)	0.25 (≈ 0.104 µM)	0.125 (≈ 0.0521 µM)	0.5 (≈ 0.208 µM)	0.125 (≈ 0.0521 µM)	0.25 (≈ 0.104 µM)	–	–	–	–	<1
CC(=O)N[C@H](C(=O)N[C@H]1CCNC(=O)C[C@@H](C(=O)N[C@@H](CO)C(N)=O)NC(=O)[C@H](C(C)C)NC(=O)[C@H](CO)NC(=O)[C@H](Cc2c[nH]c3ccccc23)NC(=O)CNC(=O)[C@@H](CCN)NC(=O)[C@H](CCC(=O)N[C@@H](CCN)C(=O)N[C@H](C(=O)N[C@@H](CN)C(=O)N[C@H]2CCNC(=O)[C@H]([C@@H](C)O)NC(=O)[C@H](CCN)NC(=O)[C@H](CCN)NC(=O)[C@H](CC(C)C)NC(=O)[C@@H](CC(C)C)NC(=O)[C@H](CCN)NC2=O)[C@@H](C)O)NC(=O)[C@H](CN)NC(=O)[C@H](Cc2ccc(O)cc2)NC1=O)C(C)C [Ex. 346] (I: Ac-V[Dab]Y[Dap]E[dDab]GWSVDS-NH2 / II: [Dab]T[Dap][Dab][Dab][dL]L[Dab][Dab]T; lactam I:2-I:11, II:4-II:C; amide I:5-II:N)	0.125 (≈ 0.0532 µM)	–	0.125 (≈ 0.0532 µM)	0.25 (≈ 0.106 µM)	–	0.5 (≈ 0.213 µM)	–	–	0.0625	0.0625	0.0625	0.125	<1

More lines, main results first:

MIC [1] [µg/mL]	MIC [2] [µg/mL]	MIC [3] [µg/mL]	MIC (Escherichia coli 926415) [µg/mL]	MIC [4] [µg/mL]	MIC [5] [µg/mL]	MIC [6] [µg/mL]	MIC [7] [µg/mL]	Acinetobacter baumannii DSM 30008 MIC [2] [µg/mL]	Escherichia coli ATCC 25922 MIC [4] [µg/mL]	Klebsiella pneumoniae SSI #3010 MIC [6] [µg/mL]	Pseudomonas aeruginosa ATCC 27853 MIC [7] [µg/mL]	SMILES	Hemolysis at 200 μg/mL [8] [%]
1 (≈ 0.428 µM)	0.125 (≈ 0.0536 µM)	0.0625 (≈ 0.0268 µM)	4 (≈ 1.71 µM)	0.0625 (≈ 0.0268 µM)	8 (≈ 3.43 µM)	0.125 (≈ 0.0536 µM)	0.25 (≈ 0.107 µM)	–	–	–	–	CC(=O)N[C@H](C(=O)N[C@H]1CCCNC(=O)[C@@H](CCCN)NC(=O)[C@H](C(C)(C)C)NC(=O)[C@H](CO)NC(=O)[C@H](Cc2c[nH]c3ccccc23)NC(=O)[C@H](CCO)NC(=O)[C@@H](CCN)NC(=O)[C@H](CCC(=O)N[C@@H](CCN)C(=O)N[C@H](C(=O)N[C@@H](CN)C(=O)N[C@H]2CCNC(=O)[C@H]([C@@H](C)O)NC(=O)[C@H](CCN)NC(=O)[C@H](CCN)NC(=O)[C@H](CC(C)C)NC(=O)[C@@H](CC(C)C)NC(=O)[C@H](CCN)NC2=O)[C@@H](C)O)NC(=O)[C@H](CO)NC(=O)[C@H](Cc2ccc(O)cc2)NC1=O)C(C)C [Ex. 29] (I: Ac-V[Orn]YSE[dDab][hSer]WS[Tle][dOrn] / II: [Dab]T[Dap][Dab][Dab][dL]L[Dab][Dab]T; lactam I:2-I:C, II:4-II:C; amide I:5-II:N)	1
0.01562 (≈ 0.00651 µM)	0.01562 (≈ 0.00651 µM)	0.0625 (≈ 0.0261 µM)	0.0625 (≈ 0.0261 µM)	0.0625 (≈ 0.0261 µM)	0.0625 (≈ 0.0261 µM)	0.0625 (≈ 0.0261 µM)	0.125 (≈ 0.0521 µM)	–	–	–	–	CC(=O)N[C@H](C(=O)N[C@H]1CSSC[C@@H](C(=O)N[C@@H](CO)C(N)=O)NC(=O)[C@H](C(C)(C)C)NC(=O)[C@H](CO)NC(=O)[C@H](Cc2c[nH]c3ccccc23)NC(=O)[C@H](CO)NC(=O)[C@@H](CCN)NC(=O)[C@H](CCC(=O)N[C@@H](CCN)C(=O)N[C@H](C(=O)N[C@@H](CN)C(=O)N[C@H]2CCNC(=O)[C@H]([C@@H](C)O)NC(=O)[C@H](CCN)NC(=O)[C@H](CCN)NC(=O)[C@H](CC(C)C)NC(=O)[C@@H](CC(C)C)NC(=O)[C@H](CCN)NC2=O)[C@@H](C)O)NC(=O)[C@H](CN)NC(=O)[C@H](Cc2ccc(O)cc2)NC1=O)C(C)C [Ex. 117] (I: Ac-VCY[Dap]E[dDab]SWS[Tle]CS-NH2 / II: [Dab]T[Dap][Dab][Dab][dL]L[Dab][Dab]T; disulfide I:2-I:11; amide I:5-II:N; lactam II:4-II:C)	2
1 (≈ 0.432 µM)	0.0625 (≈ 0.027 µM)	2 (≈ 0.865 µM)	0.5 (≈ 0.216 µM)	0.125 (≈ 0.054 µM)	0.25 (≈ 0.108 µM)	0.125 (≈ 0.054 µM)	0.125 (≈ 0.054 µM)	–	–	–	–	CC(C)C[C@@H]1NC(=O)[C@@H](CC(C)C)NC(=O)[C@H](CCN)NC(=O)[C@@H](NC(=O)[C@H](CCN)NC(=O)[C@@H](NC(=O)[C@H](CCN)NC(=O)CC[C@@H]2NC(=O)[C@H](CCN)NC(=O)[C@H](Cc3ccc(O)cc3)NC(=O)[C@@H](NC(=O)[C@@H](O)C(C)C)CSSC[C@@H](C(N)=O)NC(=O)[C@H](C(C)(C)C)NC(=O)[C@H](CO)NC(=O)[C@H](Cc3c[nH]c4ccccc34)NC(=O)[C@H](CCO)NC(=O)[C@@H](CCN)NC2=O)[C@@H](C)O)CCNC(=O)[C@H]([C@@H](C)O)NC(=O)[C@H](CCN)NC(=O)[C@H](CCN)NC1=O [Example 7] (I: H-[Hiv]CY[Dab]E[dDab][hSer]WS[Tle]C-NH2 / II: [Dab]T[Dab][Dab][Dab][dL]L[Dab][Dab]T; disulfide I:2-I:11; amide I:5-II:N; lactam II:4-II:C)	<1
0.03125 (≈ 0.013 µM)	0.01562 (≈ 0.00651 µM)	0.125 (≈ 0.0521 µM)	0.125 (≈ 0.0521 µM)	0.03125 (≈ 0.013 µM)	0.0625 (≈ 0.0261 µM)	0.03125 (≈ 0.013 µM)	0.0625 (≈ 0.0261 µM)	–	–	–	–	CC(=O)N[C@H](C(=O)N[C@H]1CSSC[C@@H](C(=O)N[C@@H](CO)C(N)=O)NC(=O)[C@H](C(C)C)NC(=O)[C@H](CO)NC(=O)[C@H](Cc2c[nH]c3ccccc23)NC(=O)[C@H](CCN)NC(=O)[C@@H](CCN)NC(=O)[C@H](CCC(=O)N[C@@H](CCN)C(=O)N[C@H](C(=O)N[C@@H](CN)C(=O)N[C@H]2CCNC(=O)[C@H]([C@@H](C)O)NC(=O)[C@H](CCN)NC(=O)[C@H](CCN)NC(=O)[C@H](CC(C)C)NC(=O)[C@@H](CC(C)C)NC(=O)[C@H](CCN)NC2=O)[C@@H](C)O)NC(=O)[C@H](CO)NC(=O)[C@H](Cc2ccc(O)cc2)NC1=O)C(C)C [Ex. 251] (I: Ac-VCYSE[dDab][Dab]WSVCS-NH2 / II: [Dab]T[Dap][Dab][Dab][dL]L[Dab][Dab]T; disulfide I:2-I:11; amide I:5-II:N; lactam II:4-II:C)	1
0.25 (≈ 0.106 µM)	0.125 (≈ 0.0532 µM)	0.125 (≈ 0.0532 µM)	0.25 (≈ 0.106 µM)	0.0625 (≈ 0.0266 µM)	0.25 (≈ 0.106 µM)	0.125 (≈ 0.0532 µM)	0.25 (≈ 0.106 µM)	–	–	–	–	CC(=O)N[C@H](C(=O)N[C@H]1CCCNC(=O)[C@@H]([C@H](C)O)NC(=O)[C@H](C(C)(C)C)NC(=O)[C@H](CO)NC(=O)[C@H](Cc2c[nH]c3ccccc23)NC(=O)[C@H](CCO)NC(=O)[C@@H](CCN)NC(=O)[C@H](CCC(=O)N[C@@H](CCN)C(=O)N[C@H](C(=O)N[C@@H](CCN)C(=O)N[C@H]2CCNC(=O)[C@H]([C@@H](C)O)NC(=O)[C@H](CCN)NC(=O)[C@H](CCN)NC(=O)[C@H](CC(C)C)NC(=O)[C@@H](CC(C)C)NC(=O)[C@H](CCN)NC2=O)[C@@H](C)O)NC(=O)[C@H](CCN)NC(=O)[C@H](Cc2ccc(O)cc2)NC1=O)C(C)C [Ex. 15] (I: Ac-V[Orn]Y[Dab]E[dDab][hSer]WS[Tle][dT] / II: [Dab]T[Dab][Dab][Dab][dL]L[Dab][Dab]T; lactam I:2-I:C, II:4-II:C; amide I:5-II:N)	<1
